Assays:
MMP-3 = conditions: MIA osteoarthritis SD rats, oral once daily 3 weeks
[1] = tested on: MIA-induced osteoarthritis rat model (mechanical allodynia); test: Analgesic efficacy: paw withdrawal threshold (Von Frey, dynamic plantar aesthesiometer) in MIA-induced osteoarthritis rats; format: in vivo, Sprague Dawley rats; conditions: G3 acetaminophen 300 mg/kg+tramadol HCl 30 mg/kg, G4 polmacoxib 0.3 mg/kg, G5 tramadol HCl 30 mg/kg
Experimental: To evaluate analgesic efficacy, paw withdrawal threshold (PWT, g) was measured using a dynamic planter aesthesiometer (Ugo Basile S.R.L, Italy).
Von Frey filament used in this experiment has a constant pressure during bending, thereby imparting a constant stimulation. At this time, physical allodynia appears as an avoidance response, thereby enabling quantification of the pain index.
1) The pain suppression effect was measured by imparting physical stimulation with Von Frey filament using Dynamic plantar aesthesiometer (UGO BASILE 37450, Italy).
2) Rats were placed individually in each acrylic cage, allowing the rats to stay for 15 minutes to habituate to the new environment.
3) After habituation, the aesthesiometer was set to 0 ˜ 50 g and 0 ˜ 20 s. The measurement of allodynia by stimulation of the stimulator is performed by stimulating the bottom part of the affected foot, increasing the force incrementally (0-50 g), and measuring the hind paw withdraw threshold (force at the moment when the test body avoided the stimulator:gram) in triplicate at 5 min intervals.
4) The paw withdrawal threshold (PWT) was measured in duplicate at a fixed time within 2 weeks (day 10) and within 3 weeks (day 17) after administration of the test substance.

[2] = tested on: MIA-induced osteoarthritis rat model (tissues of liver and stomach); test: Histopathology of stomach and liver (H&E); format: in vivo, Sprague Dawley rats; conditions: G5 tramadol HCl 30 mg/kg; for gastric tissue analysis / gastric irritation, summary in words / epithelial detachment of cardiac gland (stomach histopathology): G4 polmacoxib 0.3 mg/kg; for gastric tissue analysis / gastric irritation, summary in words: co-administration groups G6 and G7 (both doses); for epithelial detachment of cardiac gland (stomach histopathology): mild level in G3 and G4, G3 acetaminophen 300+tramadol HCl 30 mg/kg
From the text: Tissue sections were stained for histological evaluation.
1) Tissues of liver and stomach among isolated organs were sufficiently immobilized in 10% neutral buffered formalin solution, followed by general tissue treatment procedures such as trimming, dehydration and paraffin embedding to prepare tissue sections and cut them to about 4 μm. Thereafter, they were stained with Hematoxylin & Eosin (H&E) and examined microscopically.

[3] = Body weight change and clinical observation in MIA-induced osteoarthritis rat model; conditions: MIA osteoarthritis SD rats, oral once daily 3 weeks; G3 acetaminophen 300 mg/kg+tramadol HCl 30 mg/kg, G4 polmacoxib 0.3 mg/kg, G5 tramadol HCl 30 mg/kg
Experimental: In order to evaluate therapeutic effect of osteoarthritis, an animal model of osteoarthritis was prepared in Sprague Dawley rats (n=10 per group).
1) Monosodium iodoacetate (MIA, I2512, Sigma, Poole, UK) was dissolved in 0.9% sterile saline for injection at a concentration of 60 mg/ml and prepared on the day of the experiment (day 0).
2) After group separation, animals (Sprague Dawley rats) were placed in an anesthesia chamber (Matrix, US/VME-2) and anesthetized using diethyl ether. Thereafter, subjects in the induced group (G2 to G9) were injected once with 50 μl of MIA per subject (MIA 3 mg/head) into a left knee joint space via a patellar tendon using an insulin syringe (BD™ insulin syringe with Ultra-Fine™ Short Needle, 31 gauge). The number of animals in each group was 10, and the negative control group (G1) was injected once with 50 μl of saline at the same position in the left knee joint.
Group separation was performed only on animals judged to have no quarantine abnormalities during acclimation period, followed by MIA administration. On the 6th day after MIA administration, the weight bearing of hind leg for a total of 100 subjects administered with MIA was measured and the affected subjects with high weight bearing of left hind leg were sequentially excluded to select 70 subjects. […]

[4] = tested on: MIA-induced osteoarthritis rat model (knee joint); test: Histological evaluation of knee joint (H&E, safranin O-fast green, modified Mankin score); format: in vivo, Sprague Dawley rats; conditions: compared to positive control group G3; G5 tramadol HCl 30 mg/kg, co-administration groups G6 and G7 (both doses)
Experimental: 2) The collected knee joint tissues were immobilized in 10% formalin for 24 hours, and decalcificated for 72 hours while exchanging the solution with 10% formic acid at a 24-hour time interval prior to tissue treatment. The sagittal section of the knee joint was prepared through a coronal section so that the medial and lateral condyle articular surface of femur and tibia were well identified.
3) Subsequently, after a general tissue treatment procedure such as dehydration, clearing and penetration, paraffin embedding was performed and a 5 μm thin slice of knee joint was prepared with a rotary microtome. It was subject to deparaffinization and hydration, followed by Hematoxylin & Eosin (H&E) staining.
4) For safranin-O fast green (SOFG) staining, after deparaffinization and hydration, the thin slice of knee joint was reacted in Weigert's iron hematoxylin solution (HT110232, Sigma, St Louis, USA) for 10 minutes and washed with water, and then stained in 0.02% fast green (FCF) solution (F7258, Sigma, St Louis, USA) for 5 minutes. Subsequently, it was reacted in 1% acetic acid solution and then stained with 0.1% safranin O solution (S2255, Sigma, St Louis). The slide stained with safranin O-fast green was washed for 5 minutes to have clear color of nucleus. After dehydration and clarification, it was sealed. […]

[5] = tested on: MIA-induced osteoarthritis rat model (stomach, liver); test: Gross necropsy observation after completion of the experiment; conditions: n=10 per group, G5 tramadol HCl 30 mg/kg, oral once daily 3 weeks
[6] = 10-day evaluation, induced group G2 14.7 g
[7] = second evaluation (time not given; day 17 per method)

| SMILES | level of MMP-3 in serum obtained after 3 weeks of treatment, in words (MMP-3) | paw withdrawal threshold (PWT) [1, 6] | paw withdrawal threshold (PWT) [1, 7] | gastric tissue analysis / gastric irritation, summary in words [2] | epithelial detachment of cardiac gland (stomach histopathology) ([2]; n=10 per group) | weight gain at end of test compared to average weight at beginning [3] | cluster formation of chondrocytes, in words [4] | erosion of cardiac gland and fundic gland (stomach histopathology) ([2]; n=10 per group, oral once daily 3 weeks) | gastric wall thickening at gross necropsy ([5]; G3 acetaminophen 300 mg/kg+tramadol HCl 30 mg/kg) | gastric mucosal petechial hemorrhage at gross necropsy ([5]; G3 acetaminophen 300+tramadol HCl 30 mg/kg, G7 polmacoxib 0.3+tramadol HCl 30 mg/kg) | nodules on the surface of liver at gross necropsy [5] |
| --- | --- | --- | --- | --- | --- | --- | --- | --- | --- | --- | --- |
| CC1(C)OC(c2ccc(S(N)(=O)=O)cc2)=C(c2cccc(F)c2)C1=O [polmacoxib, 5-(4-(aminosulfonyl)-phenyl)-2,2-dimethyl-4-(3-fluorophenyl)-3(2H)-furanone] | lower MMP-3 levels compared to the groups G3 and G5 | 24.2 g | 24.2 g | epithelial detachment of pyloric | 4 cases | – | – | – | – | – | – |
| COc1cccc(C2(O)CCCCC2CN(C)C)c1.Cl (stereo not drawn) [tramadol hydrochloride, 2-(dimethylaminomethyl)-1-(3-methoxyphenyl)] | – | 26.3 g | 26.3 g | epithelial detachments of cardia and pyloric and erosion | 2 cases | 18.5% | improvement effects compared to the positive control group G3 | 4 cases | 3 cases | 3 cases | 1 case |
